From US20080057138A1, “RESTORATIVE SKIN CREAM” (Telford Holdings Ltd., priority 2006, published 2008)

Assays:
sunburns [1] = experiment: ability to prevent sunburns (SPF equivalent) after topical application; type: in vivo, human
Source text: Each of the three vitamins A, C and E, and complexes thereof, when topically applied individually at therapeutic levels, markedly increases the ability of the skin to absorb free radicals. Each vitamin molecule, as a measurement of this effect, adds the ability to absorb 2 MEDs (minimal erythema dose) of energy or a total of 6 MEDS if all three vitamins are present simultaneously. […] SPF (Sun Protection Factor) is a recognized measure of ultraviolet screen ability. Simultaneous application of a tri-vitamin regimen of vitamins A, C and E can result in an SPF equivalent of 24. Use of the three vitamins together in effective amounts results in enhanced protection of the skin against sunburn and, unlike sunscreens per se, persists in effect until the molecules are consumed by the body. […] The enhancement of photo protection by the tri-vitamin therapy according to the invention is particularly important as a solar spectrum (UVA, UVB) sun protectant. The effects of simultaneous use of the tri-vitamin regime and sunscreens are additive.
One measure of the activity has been to assess the ability to prevent sunburns.

sunburns [2] = experiment: Example 4: UVB sunburn study in 34 volunteers, test compounds applied before or after 1 or 3 MEDs of UVB; type: in vivo, human; conditions: for prevention of the development of sunburns: applied daily for 3 days before 1 or 3 MEDs of UVB; for treatment of the induced sunburns, review of the data of the left side: left side of the back
Protocol: In a study conducted by a practicing dermatologist, after informed consent, 34 volunteers were treated in the following manner. On the left side of the back, one inch squares were marked and treated daily for 3 days with 12 test compounds including a control of vehicle and a commercial identified sunscreen. After determining the MED (minimal erythema dose) for each subject, each subject was treated with one or 3 MEDs of UVB on both sides of the back. On the right side, 18 test compounds were applied including a vehicle control post sunburn at 0 hours, 8 hours, 24 and 48 hours. Measurements of the severity of the burns were recorded as the end point at 8, 24 and 48 hours.

sunburns [3] = conditions: cited from earlier work; for SPF equivalent: topical application, background section, no trial described
photo aging = experiment: open label proof of concept trials over 5 years in 300 patients, reversal of photo aging; type: in vivo, human
Source text: Animal models have an inherent limitation and are not necessarily directly applicable to humans. For example, various mammalian species have different metabolic characteristics. In particularly, most animals have the capacity to manufacture their own vitamin C.
Indeed, the studies appear to indicate a synergetic effect between vitamins C and E in the morning, and vitamins A and E in the evening.

photo ageing = experiment: Example 2: side effects in patients treated for photo ageing, topical tretinoin versus formulations of the invention; type: in vivo, human
Source text: In a trial conducted by a practicing dermatologist, involving 267 patients undergoing treatment for photo ageing using slowly increasing strengths of topical tretinoin, side effects were frequent and prolonged. An average of 3.7 reactions sufficiently severe to cause discontinuation of therapy were experienced and each reaction required discontinuation of treatment for an average of 7.7 days. Only 14% of patients were able to be treated without side effects at the commercially available strength of 0.1% tretinoin. […] The side effects were mild and were ameliorated by re-introducing the regime as alternate day treatment in the areas of irritation. Only 1.5% of patients were unable to tolerate the regime.

**Q.** Which effect on sunburn (sunburns [1]) does the source give for O=C1O[C@H]([C@@H](O)CO)C(O)=C1O [vitamin C, L-ascorbic acid] here?
**A.** Its effect on sunburn is “effective in reducing sunburns”.

**Q.** And the “prevention of the development of sunburns” value (sunburns [2])?
**A.** The value was “able to prevent the development of sunburns”.

**Q.** What about the “treatment of the induced sunburns, review of the data of the left side” value (sunburns [2]) of the same compound?
**A.** The value was “significant visible improvement”.

**Q.** What about the persistence of photoprotection (sunburns [3]; following a single application) of the same compound?
**A.** The persistence of photoprotection was “at least 4 days”.

**Q.** With CCCCCCCCCCCCCCCC(=O)OC/C=C(C)/C=C/C=C(C)/C=C/C1=C(C)CCCC1(C)C [vitamin A palmitate, retinyl palmitate] as the compound, how does the frequency of irritation (photo aging; compared with topical tretinoin) read?
**A.** Its frequency of irritation is “markedly reduced frequency of irritation”.

**Q.** What about the SPF equivalent (sunburns [3]) of the same compound?
**A.** The SPF equivalent was 20.

**Q.** Which effect on sunburn (sunburns [1]) does the source give for Cc1c(C)c2c(c(C)c1O)CC[C@@](C)(CCC[C@H](C)CCC[C@H](C)CCCC(C)C)O2 [vitamin E, α-tocopherol] here?
**A.** The effect on sunburn was “significantly ameliorated the signs and symptoms of sunburn”.

**Q.** What about the “prevention of the development of sunburns” value (sunburns [2]) of the same compound?
**A.** The value was “able to prevent the development of sunburns”.

**Q.** What about the treatment of sunburns (sunburns [2]; applied post sunburn) of the same compound?
**A.** Its treatment of sunburns is “statistically visible significant treatment benefit”.

**Q.** What about the “treatment of the induced sunburns, review of the data of the left side” value (sunburns [2]) of the same compound?
**A.** Its value is “significant visible improvement”.

**Q.** And the “clinical effect on photo aging” value (photo aging; topical)?
**A.** The value was “enhance reversal of photo aging”.

**Q.** Which SPF equivalent (sunburns [3]) does the source give for CC1=C(/C=C/C(C)=C/C=C/C(C)=C/CO)C(C)(C)CCC1 [retinol] here?
**A.** The SPF equivalent was 20.

**Q.** For CC1=C(/C=C/C(C)=C/C=C/C(C)=C/C(=O)O)C(C)(C)CCC1 [tretinoin, all-trans retinoic acid], which “average discontinuation of treatment per reaction” value (photo ageing; 267 patients) is on record?
**A.** Its value is 7.7 days.

**Q.** And the “average reactions sufficiently severe to cause discontinuation of therapy” value (photo ageing; 267 patients, slowly increasing strengths)?
**A.** The value was 3.7.

**Q.** And the “patients able to be treated without side effects” value (photo ageing; at commercially available strength of 0.1%)?
**A.** Its value is 14%.
